This experiment deals with Ubiquitin carboxyl-terminal hydrolase 7 (Homo sapiens, UniProt Q93009). The experiment is described as follows: Ub-AMC Enzymatic and Kinetic Assays. Here is the method: Full length USP7 was tested for its activity in Ubiquitin-AMC assay in presence or absence of inhibitors. USP7 (5 nM) was pre-incubated for 6 hours at room temperature with different concentrations of inhibitors or DMSO as a control in 50 mM HEPES pH 7.5, 0.5 mM EDTA, 11 μM ovalbumin, and 5 mM DTT. Ubiquitin-AMC (Boston Biochem) was then added to a final concentration of 500 nM. The initial rate of the reaction was measured by collecting fluorescence data at one minute intervals over 30-minute period using a Clariostar fluorescence plate reader at excitation and emission wavelength of 345 and 445 nm respectively. The calculated initial rate values were plotted against inhibitor concentrations to determine IC50s. All the experimental data were plotted using Prism GraphPad. All assays for each compound were performed at least twice for each compound.
Ubiquitin carboxyl-terminal hydrolase 7, sequence (Q93009 whole entry): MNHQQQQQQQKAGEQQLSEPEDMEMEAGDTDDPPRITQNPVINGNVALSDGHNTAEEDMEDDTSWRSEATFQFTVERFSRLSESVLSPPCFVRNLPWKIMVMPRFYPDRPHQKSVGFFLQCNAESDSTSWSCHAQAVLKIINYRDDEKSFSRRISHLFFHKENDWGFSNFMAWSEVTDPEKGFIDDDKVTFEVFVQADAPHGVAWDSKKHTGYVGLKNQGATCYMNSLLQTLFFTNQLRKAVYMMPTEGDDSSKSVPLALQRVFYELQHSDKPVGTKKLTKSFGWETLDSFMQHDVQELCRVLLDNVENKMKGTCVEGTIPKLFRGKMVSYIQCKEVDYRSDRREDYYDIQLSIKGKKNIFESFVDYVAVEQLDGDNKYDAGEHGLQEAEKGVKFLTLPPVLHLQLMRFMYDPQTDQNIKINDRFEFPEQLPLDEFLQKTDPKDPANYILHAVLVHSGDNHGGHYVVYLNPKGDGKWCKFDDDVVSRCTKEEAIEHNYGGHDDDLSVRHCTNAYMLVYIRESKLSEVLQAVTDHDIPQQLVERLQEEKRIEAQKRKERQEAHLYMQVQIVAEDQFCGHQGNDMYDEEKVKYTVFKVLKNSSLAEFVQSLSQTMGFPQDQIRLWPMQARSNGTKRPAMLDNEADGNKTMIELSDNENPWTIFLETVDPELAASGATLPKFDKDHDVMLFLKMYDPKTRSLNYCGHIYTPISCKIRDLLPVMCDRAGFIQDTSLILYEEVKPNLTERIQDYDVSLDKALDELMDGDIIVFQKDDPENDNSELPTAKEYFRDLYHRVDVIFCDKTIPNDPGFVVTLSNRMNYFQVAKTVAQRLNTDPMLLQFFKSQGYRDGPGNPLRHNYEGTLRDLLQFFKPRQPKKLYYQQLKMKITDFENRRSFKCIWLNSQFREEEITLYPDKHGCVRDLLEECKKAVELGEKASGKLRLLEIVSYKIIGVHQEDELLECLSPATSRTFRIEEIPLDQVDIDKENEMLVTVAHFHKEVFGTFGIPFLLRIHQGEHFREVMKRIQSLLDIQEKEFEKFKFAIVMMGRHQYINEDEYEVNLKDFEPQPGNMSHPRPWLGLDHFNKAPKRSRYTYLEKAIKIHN

`CN1CCN(CCC(=O)Nc2ccc3c(=O)n(CC4(O)CCN(C(=O)C(CCCNC(=O)C5CCN(C#N)C5)Cc5ccccc5)CC4)cnc3c2)CC1` (stereo unspecified) [US12503453, Compound Table1.19]: the IC50 was above 1000 nM.

For the origin of these results see BindingDB's records for patent US12503453 (Dana-Farber Cancer Institute, 2025).
